Read-outs that look alike come from different tables or passages of the source. One block for each compound: values may come before it.
Tests used:
Assay type in all cases: cell-based
Renilla = Renilla signal in NR2F6 agonist screening, cmpd/DMSO; settings: Renilla, F4
NR2F6 = target: T1, NR2F6 (Homo sapiens, UniProt P10588); assay: NR2F6 agonist screening, Firefly signal cmpd/DMSO
T1 construct: expressed in transfected cells; also transient transfection
T1 sequence (P10588 1-404): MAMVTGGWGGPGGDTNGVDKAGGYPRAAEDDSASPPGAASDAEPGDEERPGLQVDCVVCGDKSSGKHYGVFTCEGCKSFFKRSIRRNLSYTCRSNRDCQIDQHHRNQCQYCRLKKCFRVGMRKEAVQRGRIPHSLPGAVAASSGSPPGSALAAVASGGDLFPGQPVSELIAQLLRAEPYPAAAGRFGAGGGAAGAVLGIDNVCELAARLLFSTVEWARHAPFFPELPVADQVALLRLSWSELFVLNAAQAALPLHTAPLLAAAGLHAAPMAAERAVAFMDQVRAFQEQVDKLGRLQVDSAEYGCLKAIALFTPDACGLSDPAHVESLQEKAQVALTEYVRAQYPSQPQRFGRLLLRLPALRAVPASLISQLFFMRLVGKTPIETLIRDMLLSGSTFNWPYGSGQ

NR2F6 LBD = target: T2, NR2F6 LBD (Homo sapiens, UniProt P10588); assay: NR2F6 LBD transient transfection; settings: LBD
T2 construct: expressed in transfected cells
T2 sequence (P10588 165-393 limits assumed): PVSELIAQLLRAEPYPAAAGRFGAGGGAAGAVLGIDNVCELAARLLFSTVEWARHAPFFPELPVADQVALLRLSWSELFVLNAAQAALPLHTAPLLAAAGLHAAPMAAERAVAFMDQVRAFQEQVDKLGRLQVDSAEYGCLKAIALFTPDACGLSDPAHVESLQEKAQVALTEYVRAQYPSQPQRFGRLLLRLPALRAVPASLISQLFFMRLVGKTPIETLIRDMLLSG
Summary of the method: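 LBD-transfected cells treated at 40, 10, 2 and 0.5 μM (4 replicates); cytotoxicity measured in parallel, normalized to DMSO (0%) and zero signal (100%). Higher concentrations excluded where signal loss reflected toxicity.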

HEK293 pGL4 = assay: Firefly_pGL signal, cmpd/DMSO (pGL4 control cells); settings: Homo sapiens
[1] = read-out: Renilla, F4, cmpd/DMSO (mean)
[2] = 1% FBS, read-out: Renilla, F4, 1% FBS, cmpd/DMSO (mean)
[3] = 10% FBS, read-out: Renilla, F4, 10% FBS, cmpd/DMSO (mean)
[4] = HEK293, 0.5 uM, pGL4, read-out: Firefly pGL4, cmpd/DMSO (mean)
[5] = HEK293, 2 uM, pGL4, read-out: Firefly pGL4, cmpd/DMSO (mean)
[6] = HEK293, 10 uM, pGL4, read-out: Firefly pGL4, cmpd/DMSO (mean)
[7] = HEK293, 40 uM, pGL4, read-out: Firefly pGL4, cmpd/DMSO (mean)
[8] = HEK293, pGL4, 1% FBS, 0.5 uM, read-out: Firefly, pGL4, 1% FBS, cmpd/DMSO (mean)
[9] = HEK293, pGL4, 1% FBS, 2 uM, read-out: Firefly, pGL4, 1% FBS, cmpd/DMSO (mean)
[10] = HEK293, pGL4, 1% FBS, 10 uM, read-out: Firefly, pGL4, 1% FBS, cmpd/DMSO (mean)
[11] = HEK293, pGL4, 1% FBS, 40 uM, read-out: Firefly, pGL4, 1% FBS, cmpd/DMSO (mean)
[12] = HEK293, pGL4, 10% FBS, 0.5 uM, read-out: Firefly, pGL4, 10% FBS, cmpd/DMSO (mean)
[13] = HEK293, pGL4, 10% FBS, 2 uM, read-out: Firefly, pGL4, 10% FBS, cmpd/DMSO (mean)
[14] = HEK293, pGL4, 10% FBS, 10 uM, read-out: Firefly, pGL4, 10% FBS, cmpd/DMSO (mean)
[15] = HEK293, pGL4, 10% FBS, 40 uM, read-out: Firefly, pGL4, 10% FBS, cmpd/DMSO (mean)

Firefly F4, cmpd/DMSO (mean) (NR2F6; 0.5 uM): 1.4 | Firefly F4, cmpd/DMSO (mean) (NR2F6; 2 uM): 2.2 | Firefly F4, cmpd/DMSO (mean) (NR2F6; 10 uM): 4.0 | Firefly F4, cmpd/DMSO (mean) (NR2F6; 40 uM): 1.6 | F4, Firefly/Renilla for S/B(F4) > 3 (NR2F6; 1% FBS, 10 uM): 2.3 | Firefly, F4/pGL4 for S/B(F4) > 3 (NR2F6; 1% FBS, 10 uM): 1.8 | F4, Firefly/Renilla for S/B(F4) > 3 (NR2F6; 10% FBS, 10 uM): 2.7 | Firefly, F4/pGL4 for S/B(F4) > 3 (NR2F6; 10% FBS, 10 uM): 1.4 | F4, Firefly/Renilla for S/B(F4) > 3 (NR2F6; 10% FBS, 40 uM): 2.4 | Firefly, F4/pGL4 for S/B(F4) > 3 (NR2F6; 10% FBS, 40 uM): 2.0 | Firefly, F4, 1% FBS, cmpd/DMSO (mean) (NR2F6; 1% FBS, 0.5 uM): 0.7 | Firefly, F4, 1% FBS, cmpd/DMSO (mean) (NR2F6; 1% FBS, 2 uM): 1.2 | Firefly, F4, 1% FBS, cmpd/DMSO (mean) (NR2F6; 1% FBS, 10 uM): 3.6 | Firefly, F4, 1% FBS, cmpd/DMSO (mean) (NR2F6; 1% FBS, 40 uM): 0.6 | Firefly, F4, 10% FBS, cmpd/DMSO (mean) (NR2F6; 10% FBS, 0.5 uM): 1.1 | Firefly, F4, 10% FBS, cmpd/DMSO (mean) (NR2F6; 10% FBS, 2 uM): 1.2 | Firefly, F4, 10% FBS, cmpd/DMSO (mean) (NR2F6; 10% FBS, 10 uM): 3.4 | Firefly, F4, 10% FBS, cmpd/DMSO (mean) (NR2F6; 10% FBS, 40 uM): 5.0 | Firefly LBD, cmpd/DMSO (mean) (NR2F6 LBD; 0.5 uM): 1.1 | Firefly LBD, cmpd/DMSO (mean) (NR2F6 LBD; 2 uM): 1.7 | Firefly LBD, cmpd/DMSO (mean) (NR2F6 LBD; 10 uM): 3.1 | Firefly LBD, cmpd/DMSO (mean) (NR2F6 LBD; 40 uM): 0.7
Structure (SMILES): O=S1(=O)C[C@H](NC2CCCCCC2)[C@@H](S(=O)(=O)c2ccc(Cl)cc2)C1 [Compound D130]
fold induction at 0.5 µM (Renilla; [1]): 1.1 | fold induction at 2 µM (Renilla; [1]): 1.2 | fold induction at 10 µM (Renilla; [1]): 1.5 | fold induction at 40 µM (Renilla; [1]): 1.8 | fold induction at 0.5 µM (Renilla; [2]): 1.1 | fold induction at 2 µM (Renilla; [2]): 1.2 | fold induction at 10 µM (Renilla; [2]): 1.6 | fold induction at 40 µM (Renilla; [2]): 1.9 | fold induction at 0.5 µM (Renilla; [3]): 0.8 | fold induction at 2 µM (Renilla; [3]): 0.9 | fold induction at 10 µM (Renilla; [3]): 1.3 | fold induction at 40 µM (Renilla; [3]): 2.1 | fold induction at 0.5 µM (HEK293 pGL4; [4]): 1.2 | fold induction at 2 µM (HEK293 pGL4; [5]): 1.8 | fold induction at 10 µM (HEK293 pGL4; [6]): 3.4 | fold induction at 40 µM (HEK293 pGL4; [7]): 0.6 | fold induction at 0.5 µM (HEK293 pGL4; [8]): 1.2 | fold induction at 2 µM (HEK293 pGL4; [9]): 2 | fold induction at 10 µM (HEK293 pGL4; [10]): 2 | fold induction at 40 µM (HEK293 pGL4; [11]): 0.9 | fold induction at 0.5 µM (HEK293 pGL4; [12]): 1 | fold induction at 2 µM (HEK293 pGL4; [13]): 1.6 | fold induction at 10 µM (HEK293 pGL4; [14]): 2.5 | fold induction at 40 µM (HEK293 pGL4; [15]): 2.5

Firefly F4, cmpd/DMSO (mean) (NR2F6; 0.5 uM): 1.5 | Firefly F4, cmpd/DMSO (mean) (NR2F6; 2 uM): 1.9 | Firefly F4, cmpd/DMSO (mean) (NR2F6; 10 uM): 5.5 | Firefly F4, cmpd/DMSO (mean) (NR2F6; 40 uM): 1.1 | F4, Firefly/Renilla for S/B(F4) > 3 (NR2F6; 1% FBS, 10 uM): 3.0 | Firefly, F4/pGL4 for S/B(F4) > 3 (NR2F6; 1% FBS, 10 uM): 1.9 | F4, Firefly/Renilla for S/B(F4) > 3 (NR2F6; 10% FBS, 10 uM): 2.0 | Firefly, F4/pGL4 for S/B(F4) > 3 (NR2F6; 10% FBS, 10 uM): 1.2 | F4, Firefly/Renilla for S/B(F4) > 3 (NR2F6; 10% FBS, 40 uM): 1.8 | Firefly, F4/pGL4 for S/B(F4) > 3 (NR2F6; 10% FBS, 40 uM): 3.4 | Firefly, F4, 1% FBS, cmpd/DMSO (mean) (NR2F6; 1% FBS, 0.5 uM): 0.7 | Firefly, F4, 1% FBS, cmpd/DMSO (mean) (NR2F6; 1% FBS, 2 uM): 1.3 | Firefly, F4, 1% FBS, cmpd/DMSO (mean) (NR2F6; 1% FBS, 10 uM): 5.0 | Firefly, F4, 1% FBS, cmpd/DMSO (mean) (NR2F6; 1% FBS, 40 uM): 0.5 | Firefly, F4, 10% FBS, cmpd/DMSO (mean) (NR2F6; 10% FBS, 0.5 uM): 0.9 | Firefly, F4, 10% FBS, cmpd/DMSO (mean) (NR2F6; 10% FBS, 2 uM): 1.4 | Firefly, F4, 10% FBS, cmpd/DMSO (mean) (NR2F6; 10% FBS, 10 uM): 3.3 | Firefly, F4, 10% FBS, cmpd/DMSO (mean) (NR2F6; 10% FBS, 40 uM): 5.4 | Activity, cmpd/DMSO (NR2F6; Table 31): 6.6 | Firefly LBD, cmpd/DMSO (mean) (NR2F6 LBD; 0.5 uM): 1.1 | Firefly LBD, cmpd/DMSO (mean) (NR2F6 LBD; 2 uM): 2.1 | Firefly LBD, cmpd/DMSO (mean) (NR2F6 LBD; 10 uM): 4.3 | Firefly LBD, cmpd/DMSO (mean) (NR2F6 LBD; 40 uM): 0.4
Structure (SMILES): CCCCN(C)[C@H]1CS(=O)(=O)C[C@@H]1S(=O)(=O)c1ccc(Cl)cc1 [Compound D132]
fold induction at 0.5 µM (Renilla; [1]): 1 | fold induction at 2 µM (Renilla; [1]): 1.2 | fold induction at 10 µM (Renilla; [1]): 1.7 | fold induction at 40 µM (Renilla; [1]): 1.3 | fold induction at 0.5 µM (Renilla; [2]): 1.1 | fold induction at 2 µM (Renilla; [2]): 1.3 | fold induction at 10 µM (Renilla; [2]): 1.7 | fold induction at 40 µM (Renilla; [2]): 1.7 | fold induction at 0.5 µM (Renilla; [3]): 0.9 | fold induction at 2 µM (Renilla; [3]): 1.1 | fold induction at 10 µM (Renilla; [3]): 1.6 | fold induction at 40 µM (Renilla; [3]): 3 | fold induction at 0.5 µM (HEK293 pGL4; [4]): 1.6 | fold induction at 2 µM (HEK293 pGL4; [5]): 1.6 | fold induction at 10 µM (HEK293 pGL4; [6]): 4.9 | fold induction at 40 µM (HEK293 pGL4; [7]): 0.5 | fold induction at 0.5 µM (HEK293 pGL4; [8]): 1 | fold induction at 2 µM (HEK293 pGL4; [9]): 1.6 | fold induction at 10 µM (HEK293 pGL4; [10]): 2.6 | fold induction at 40 µM (HEK293 pGL4; [11]): 0.8 | fold induction at 0.5 µM (HEK293 pGL4; [12]): 0.9 | fold induction at 2 µM (HEK293 pGL4; [13]): 1.3 | fold induction at 10 µM (HEK293 pGL4; [14]): 2.7 | fold induction at 40 µM (HEK293 pGL4; [15]): 1.6
